The values below come from patent US20170001990A1 (Genentech, Inc., priority 2014, published 2017).

The structures appear in SMILES notation.

The experiment has as its target Human recombinant carboxy-terminal his-tagged LDHA (amino acids 2-332) (Homo sapiens, UniProt P00338). The experiment is described as follows: LDHA enzyme inhibition assay (NADH fluorescence). Particulars: LDHA IC50 (μM), 1 nM LDHA, NADH and pyruvate, stereochemistry of tested sample given.
`Cc1cc(Nc2cccc(C3(c4ccsc4)CC(=O)C(Sc4ccccc4Cl)C(=O)N3)n2)nn1C` (centres unmarked) [Example 272, 3-((2-chlorophenyl)thio)-6-(6-((1,5-dimethyl-1H-pyrazol-3-yl)amino)pyridin-2-yl)-6-(thiophen-3-yl) piperidine-2,4-dione]: the IC50 is 0.459 µM.

`COc1ccc(N(C)c2cccc(C3(c4ccsc4)CC(=O)C(Sc4ccccc4Cl)C(=O)N3)n2)cc1` (centres unmarked) [Example 273, 3-((2-chlorophenyl)thio)-6-(6-((4-methoxyphenyl) (methyl)amino)pyridin-2-yl)-6-(thiophen-3-yl) piperidine-2,4-dione]: the half-inhibitory concentration (IC50) is 0.072 µM.

For the molecule `COc1cccc(N(C)c2cccc(C3(c4ccsc4)CC(=O)C(Sc4ccccc4Cl)C(=O)N3)n2)c1` (centres unmarked) [Example 274, 3-((2-chlorophenyl)thio)-6-(6-((3-methoxyphenyl) (methyl)amino)pyridin-2-yl)-6-(thiophen-3-yl) piperidine-2,4-dione], the IC50 was found to be 0.157 µM.

Turning to `CN(c1cccc(C(F)(F)F)c1)c1cccc(C2(c3ccsc3)CC(=O)C(Sc3ccccc3Cl)C(=O)N2)n1` (centres unmarked) [Example 275, 3-((2-chlorophenyl)thio)-6-(6-(methyl(3-(trifluoromethyl)phenyl)amino)pyridin-2-yl)-6-(thiophen-3-yl)piperidine-2,4-dione], the IC50 was found to be 0.233 µM.

For `Cc1cnc(Nc2cccc(C3(c4ccsc4)CC(=O)C(Sc4ccccc4Cl)C(=O)N3)n2)[nH]1` (centres unmarked) [Example 276, 3-((2-chlorophenyl)thio)-6-(6-((5-methyl-1H-imidazol-2-yl)amino)pyridin-2-yl)-6-(thiophen-3-yl)piperidine-2,4-dione], the IC50 worked out at 0.175 µM.

Regarding `Cn1ccnc1Nc1cccc(C2(c3ccsc3)CC(=O)C(Sc3ccccc3Cl)C(=O)N2)n1` (centres unmarked) [Example 277, 3-((2-chlorophenyl)thio)-6-(6-((1-methyl-1H-imidazol-2-yl)amino)pyridin-2-yl)-6-(thiophen-3-yl)piperidine-2,4-dione], the concentration for half-maximal inhibition (IC50) turned out to be 0.337 µM.

In the case of `Cc1cnc(N)n1-c1cccc(C2(c3ccsc3)CC(=O)C(Sc3ccccc3Cl)C(=O)N2)n1` (centres unmarked) [Example 278, 6-(6-(2-amino-5-methyl-1H-imidazol-1-yl)pyridin-2-yl)-3-((2-chloro-phenyl)thio)-6-(thiophen-3-yl)piperidine-2,4-dione], the half-maximal inhibitory concentration (IC50) worked out at 0.339 µM.

Regarding `CN(c1ccc(Cl)cc1)c1cccc(C2(c3ccsc3)CC(=O)C(Sc3ccccc3Cl)C(=O)N2)n1` (centres unmarked) [Example 279, 6-(6-((4-chlorophenyl) (methyl)amino)pyridin-2-yl)-3-((2-chlorophenyl)thio)-6-(thiophen-3-yl) piperidine-2,4-dione], the IC50 stood at 0.272 µM.

As for `O=C1CC(c2ccsc2)(c2cccc(NS(=O)(=O)N3CCC3)n2)NC(=O)C1Sc1ccccc1Cl` (centres unmarked) [Example 286, N-(6-(5-((2-chlorophenyl)thio)-4,6-dioxo-2-(thiophen-3-yl)piperidin-2-yl)pyridin-2-yl)azetidine-1-sulfonamide], the half-maximal inhibitory concentration (IC50) came to 0.057 µM.

Regarding `Cc1csc(Nc2cccc(C3(c4ccsc4)CC(=O)C(Sc4ccccc4Cl)C(=O)N3)n2)n1` (centres unmarked) [Example 287, 3-((2-chlorophenyl)thio)-6-(6-((4-methylthiazol-2-yl)amino)pyridin-2-yl)-6-(thiophen-3-yl)piperidine-2,4-dione], the IC50 amounted to 0.01 µM.

For `Cc1cnc(Nc2cccc(C3(c4ccsc4)CC(=O)C(Sc4ccccc4Cl)C(=O)N3)n2)s1` (centres unmarked) [Example 288, 3-((2-chlorophenyl)thio)-6-(6-((5-methylthiazol-2-yl)amino)pyridin-2-yl)-6-(thiophen-3-yl)piperidine-2,4-dione], the IC50 worked out at 0.141 µM.

As to `O=C1CC(c2ccsc2)(c2cccc(Nc3cccc(CO)c3)n2)NC(=O)C1Sc1ccccc1Cl` (centres unmarked) [Example 290], the IC50 was 0.017 µM.

For `O=C1CC(c2ccsc2)(c2cccc(Nc3ccc(F)cc3)n2)NC(=O)C1Oc1ccccc1Cl` (centres unmarked) [Example 295, 3-(2-chlorophenoxy)-6-[6-(4-fluoroanilino)-2-pyridyl]-6-(3-thienyl)piperidine-2,4-dione], the half-maximal inhibitory concentration (IC50) worked out at 0.081 µM.

Take `O=C1CC(c2ccsc2)(c2cccc(N[C@H](CO)c3ccc(F)c(Cl)c3)n2)NC(=O)C1Sc1ccccc1Cl` (stereo partly drawn) [Example 296, 6-(6-(((S)-1-(3-chloro-4-fluorophenyl)-2-hydroxy-ethyl)amino)pyridin-2-yl)-3-((2-chlorophenyl)thio)-6-(thiophen-3-yl) piperidine-2,4-dione]: the half-inhibitory concentration (IC50) was 0.039 µM.

For the molecule `CC[C@@H](Nc1cccc(C2(c3ccsc3)CC(=O)C(Sc3ccccc3Cl)C(=O)N2)n1)c1ccc(F)c(Cl)c1` (stereo partly drawn) [Example 297, 6-(6-(((R)-1-(3-chloro-4-fluorophenyl)propyl)amino)pyridin-2-yl)-3-((2-chlorophenyl)thio)-6-(thiophen-3-yl)piperidine-2,4-dione], the half-maximal inhibitory concentration (IC50) was determined as 0.149 µM.

With `O=C1CC(c2ccsc2)(c2cccc(OCc3ccc(F)cc3)n2)NC(=O)C1Sc1ccccc1Cl` (centres unmarked) [Example 300, 3-((2-chlorophenyl)thio)-6-(6-((4-fluorobenzyl)oxy)pyridin-2-yl)-6-(thiophen-3-yl)piperidine-2,4-dione], the IC50 is 0.144 µM.

Turning to `CC(Oc1cccc(C2(c3ccsc3)CC(=O)C(Sc3ccccc3Cl)C(=O)N2)n1)c1ccc(F)cc1` (centres unmarked) [Example 301], the IC50 came to 0.092 µM.

On to `CCC(Nc1cccc(C2(c3ccsc3)CC(=O)C(Sc3ccccc3Cl)C(=O)N2)n1)c1ccc(F)cc1` (centres unmarked) [Example 304, 3-((2-chlorophenyl)thio)-6-(6-((1-(4-fluoro-phenyl)propyl)amino)pyridin-2-yl)-6-(thiophen-3-yl)piperidine-2,4-dione], for which the half-inhibitory concentration (IC50) was 0.021 µM.

In the case of `CCC(Oc1cccc(C2(c3ccsc3)CC(=O)C(Sc3ccccc3Cl)C(=O)N2)n1)c1ccc(F)cc1` (centres unmarked) [Example 305], the half-inhibitory concentration (IC50) came to 0.025 µM.

In the case of `O=C1CC(c2ccsc2)(c2cccc(OC3CCC(F)(F)CC3)n2)NC(=O)C1Sc1ccccc1Cl` (centres unmarked) [Example 306, 3-((2-chlorophenyl)thio)-6-(6-((4,4-difluoro-cyclohexyl)oxy)pyridin-2-yl)-6-(thiophen-3-yl)piperidine-2,4-dione], the IC50 turned out to be 0.129 µM.

On to `CC(O)c1cccc(Nc2cccc(C3(c4ccsc4)CC(=O)C(Sc4ccccc4Cl)C(=O)N3)n2)c1` (centres unmarked) [Example 307, 3-((2-chlorophenyl)thio)-6-(6-((3-(1-hydroxy-ethyl)phenyl)amino)pyridin-2-yl)-6-(thiophen-3-yl)piperidine-2,4-dione], for which the IC50 was 0.095 µM.

Take `O=C1CC(c2ccsc2)(c2cccc(OCC3CCCCC3)n2)NC(=O)C1Sc1ccccc1Cl` (centres unmarked) [Example 308, 3-((2-chlorophenyl)thio)-6-(6-(cyclohexylmethoxy)pyridin-2-yl)-6-(thiophen-3-yl)piperidine-2,4-dione]: the concentration for half-maximal inhibition (IC50) was determined as 0.825 µM.

`CN(c1cccc(CO)c1)c1cccc(C2(c3ccsc3)CC(=O)C(Sc3ccccc3Cl)C(=O)N2)n1` (centres unmarked) [Example 309, 3-((2-chlorophenyl)thio)-6-(6-((3-(hydroxymethyl)phenyl)(methyl)amino)pyridin-2-yl)-6-(thiophen-3-yl)piperidine-2,4-dione]: the concentration for half-maximal inhibition (IC50) was found to be 0.408 µM.

With `CN(c1cccc(CO)c1)c1cccc(C2(c3ccsc3)CC(=O)C(Sc3ccccc3Cl)C(=O)N2)n1` (centres unmarked) [Example 310, 3-((2-chlorophenyl)thio)-6-(6-((3-(hydroxymethyl)phenyl)(methyl)amino)pyridin-2-yl)-6-(thiophen-3-yl)piperidine-2,4-dione], the IC50 was 0.365 µM.

On to `CC(Oc1cccc(C2(c3ccsc3)CC(=O)C(Sc3ccccc3Cl)C(=O)N2)n1)c1ccc(Cl)cc1` (centres unmarked) [Example 311, 6-(6-(1-(4-chlorophenyl)ethoxy)pyridin-2-yl)-3-((2-chlorophenyl)thio)-6-(thiophen-3-yl)piperidine-2,4-dione], for which the half-maximal inhibitory concentration (IC50) was 0.59 µM.

`CC(Oc1cccc(C2(c3ccsc3)CC(=O)C(Sc3ccccc3Cl)C(=O)N2)n1)c1cccc(F)c1` (centres unmarked) [Example 312, 3-((2-chlorophenyl)thio)-6-(6-(1-(3-fluorophenyl)ethoxy)pyridin-2-yl)-6-(thiophen-3-yl)piperidine-2,4-dione]: the IC50 was 0.119 µM.

For the molecule `CC(Oc1cccc(C2(c3ccsc3)CC(=O)C(Sc3ccccc3Cl)C(=O)N2)n1)c1ccc(F)c(F)c1` (centres unmarked) [Example 313, 3-((2-chlorophenyl)thio)-6-(6-(1-(3,4-difluoro-phenyl)ethoxy)pyridin-2-yl)-6-(thiophen-3-yl) piperidine-2,4-dione], the IC50 worked out at 0.105 µM.

On to `O=C1CC(c2ccsc2)(c2cccc(Oc3ccc(C(F)(F)F)cc3)n2)NC(=O)C1Sc1ccccc1Cl` (centres unmarked) [Example 315, 3-(2-chlorophenyl)sulfanyl-6-(3-thienyl)-6-[6-[4-(trifluoromethyl)phenoxy]-2-pyridyl]piperidine-2,4-dione], for which the half-maximal inhibitory concentration (IC50) worked out at 0.014 µM.

For `O=C1CC(c2ccsc2)(c2cccc(Nc3ccc(F)nc3)n2)NC(=O)C1Sc1ccccc1Cl` [Example 317, (6R)-3-(2-chlorophenyl) sulfanyl-6-[6-[(6-fluoro-3-pyridyl)amino]-2-pyridyl]-6-(3-thienyl) piperidine-2,4-dione], the half-inhibitory concentration (IC50) was determined as 0.225 µM.

As to `O=C1C[C@](c2ccc(N3CCOCC3)cc2)(c2cccc(Oc3ccc(F)c(F)c3)n2)NC(=O)C1Sc1ccccc1Cl` (stereo partly drawn) [Example 318, (6S)-3-(2-chlorophenyl) sulfanyl-6-[6-(3,4-difluoro-phenoxy)-2-pyridyl]-6-(4-morpholinophenyl) piperidine-2,4-dione], the IC50 stood at 0.01 µM.

In the case of `CC(C)c1cc(F)ccc1Oc1cccc([C@@]2(c3ccsc3)CC(=O)C(Sc3ccccc3Cl)C(=O)N2)n1` (stereo partly drawn) [Example 319, (6S)-3-(2-chlorophenyl) sulfanyl-6-[6-(4-fluoro-2-isopropyl-phenoxy)-2-pyridyl]-6-(3-thienyl) piperidine-2,4-dione], the IC50 came to 0.197 µM.

With `COC1CCC(Oc2cccc(C3(c4ccsc4)CC(=O)C(Sc4ccccc4Cl)C(=O)N3)n2)CC1` (centres unmarked) [Example 320, 5-(2-chlorophenyl)sulfanyl-4-hydroxy-2-[6-(4-methoxycyclohexoxyl)-2-pyridyl]-2-(3-thienyl)-1,3-dihydropyridin-6-one], the IC50 amounted to 0.093 µM.
